Experimental data reported in patent publication US20240287042A1, “NOVEL COMPOUND HAVING INHIBITORY ACTIVITY AGAINST PENDRIN, AND PHARMACEUTICAL USES THEREOF” (UIF (University Industry Foundation), Yonsei University, priority 2021, published 2024).

Assays:
[1] = tested on: C57BL/6N mice; assay: Diuretic effect in mice (urine volume); type: in vivo; details: i.p. twice at 3 h interval, urine volume after 6 hours, alone
Description: Wild-type male C57BL/6N mice aged 8 weeks and weighing 20-24 g were purchased from Orient Bio (Seongnam, South Korea). Before the experiment, water and diet were restricted, and the bladder was stimulated to induce urine. A 100 mg/ml stock concentration of YPI-A4948 dissolved in DMSO was prepared to have final concentrations of 0.001 mg/kg/100 ul, 0.005 mg/kg/100 ul and […] mg/kg/100 ul, 0.1 mg/kg/100 ul, 0.5 mg/kg/100 ul and 1 mg/kg/100 ul (1% DMSO+DW), respectively, and injected intraperitoneally twice with an interval of 3 hours. After 6 hours, the urine volume of each group of mice was measured.

[2] = tested on: LPS-induced lung injury model; assay: LPS-induced lung injury model in mice, i.v. treatment after LPS; type: in vivo, C57BL/6N mice
Description: Lipid polysaccharide (LPS, 200 μg/head) dissolved in 50 μL PBS was injected intranasally into C57BL/6N mice. YPI-A4948 (1, 10 μg/kg) was administered intravenously twice in total at 6 hours and 12 hours after LPS injection, and the mice were euthanized at 24 hours after LPS inhalation to remove the lungs. Immune cell recruitment was confirmed through bronchoalveolar lavage fluid (BALF) obtained by injecting 1 mL of PBS into the removed lung and then re-extracting the PBS. Lung injury parameters were measured by ELISA after lysing lung tissue. The expression level of pendrin protein was confirmed by Western blot, and this was digitalized and measured using a shade measuring instrument (mean±SEM, n=3 per group). Pendrin mRNA levels were determined by real-time quantitative PCR in extracted lung tissue (mean±SEM, n=3 per group). IL-10, MIP-2, IL-6, and TNF-α levels were measured by ELISA in lung tissue lysates (mean±SEM n=4-7 mice per group).

[3] = tested on: human nasal epithelial cells (HNE); assay: Volume of airway surface liquid (ASL) in IL-4-treated differentiated human nasal epithelial cells; type: cell-based; details: 30 μM, IL-4 10 ng/ml, 48 hours
Description: For differentiation of primary cultures of human nasal epithelial cells, cells were cultured in Transwell (Transwell, Costar Co., Cambridge, MA) with 0.45 µm pores at a density of 2×10^5 cells/cm^2. Cells were cultured in a 1:1 mixed culture medium of Dulbecco's modified Eagle's medium (Lonza) and bronchial epithelial growth medium (Lonza) supplemented with the following growth factors, while changing the medium every 2 to 3 days. The cells were cultured in a precipitated state in the culture medium for the first 7 days, and during the subsequent culture period, and cultured by exposing the upper part of transwell to air. After establishment of the air-liquid interface (ALI), cells were cultured and differentiated for 21 days. At all stages of culture, the cell culture medium was maintained at 5% CO2 and 37° C.
Vehicle, IL-4 (10 ng/ml), and YPI-H05 (30 μM) were added to the basal fluid of transwell in which differentiated NHE cells expressing normal pendrin were growing, and cultured at 37° C. under 5% CO2 in an incubator for 48 hours. After cultured, a round filter paper with a diameter of 10 mm was placed in the lumen side of the transwell and left for 10 seconds to absorb moisture from the airway surface liquid. Changes in the volume of airway surface liquid were measured through increased filter paper weight using a precision electronic balance.

[4] = i.v. 1, 10 μg/kg at 6 and 12 h after LPS, vs LPS only

SMILES	Dose from which a diuretic effect is exhibited [1] [mg/kg]	Lung inflammatory cytokine IL-6 ([2]; ELISA in lung tissue lysates)	Lung inflammatory cytokine IL-10 ([2]; ELISA in lung tissue lysates)	Lung inflammatory cytokine MIP-2 ([2]; ELISA in lung tissue lysates)	Lung inflammatory cytokine TNF-α ([2]; ELISA in lung tissue lysates)	BALF protein concentration [2, 4]	BALF total cell counts [2, 4]	Level of pendrin mRNA in lung [2, 4]	Level of pendrin protein in lung [2, 4]	Volume of airway surface liquid (ASL) reduced by IL-4 [3]
Cc1ccc2[nH]c(C(=O)O)c(CC(=O)N3CCN(c4c(C)cccc4Cl)CC3)c2c1 [YPI-A4948, 3-(2-(4-(2-Chloro-6-methylphenyl)piperazin-1-yl)-2-oxoethyl)-5-methyl-1H-indole-2-carboxylic acid]	≥ 0.01	statistically significantly reduced	statistically significantly reduced	statistically significantly reduced	statistically significantly reduced	significantly reduced	significantly reduced	significantly reduced	significantly reduced	
Cc1ccc(C)c(N2CCN(C(=O)Cc3c(C(=O)O)[nH]c4ccc(Cl)cc34)CC2)c1 [YPI-H05, 5-chloro-3-(2-(4-(2,5-dimethylphenyl)piperazin-1-yl-)-2-oxoethyl)-1H-indole-2-carboxylic acid]										significantly increased
